Measured values: US7906512B2, “3,6-substituted imidazol[1,2-b]pyridazine analogs for treating allergic and inflammatory diseases” (Alcon, Inc., priority 2005, dated 2011)
Where two headings read alike, the source gives them in different places.

Target: Syk (h) (Homo sapiens, UniProt P43405)
Test: Syk kinase inhibition assay (33P-ATP filter binding)
Type: biochemical
Protocol: In a final reaction volume of 25 μl, Syk (h) (5-10 mU) is incubated with 50 mM Tris pH 7.5, […], 0.1 mM Na3VO4, 0.1% β-mercaptoethanol, 0.1 mg/mL poly (Glu, Tyr) 4:1, 10 μM test agent, 10 mM MgAcetate and [γ-^33P-ATP] (specific activity approximately 500 cpm/pmol, concentration as required). The reaction is initiated by the addition of the MgATP mix. After incubation for 40 minutes at room temperature, the reaction is stopped by the addition of 5 μl of a 3% phosphoric acid solution. 10 μl of the reaction is then spotted onto a Filtermat A and washed three times for 5 minutes in 75 mM phosphoric acid and once in methanol prior to drying and scintillation counting. Percent inhibition was calculated using the following formula: % Control=((sample-mean no enzyme)/(mean plus enzyme−mean no enzyme))×100.

[1] = 10 μM test agent, 40 minutes at room temperature, substrate poly (Glu, Tyr) 4:1, read-out: % inhibition

SMILES | inhibition at 10 µM [1] | inhibition at 10 µM
COc1ccccc1-c1cnc2ccc(NCc3ccccn3)nn12 | 81% | 
COc1ccc(-c2cnc3ccc(NCc4ccccn4)nn23)cc1 | 77% | 
c1n[nH]cc1-c1cnc2ccc(NC3CCOCC3)nn12 | 42% | 
CCCNc1ccc2ncc(-c3cc(C)cs3)n2n1 | 38% | 
CN1CCN(c2ccc(CNc3ccc4ncc(-c5cccc(OC(F)(F)F)c5)n4n3)cc2)CC1 | 33% | 
CCCC/C=C/c1cnc2ccc(NCCN(C)C)nn12 |  | 27%
c1csc(-c2cnc3ccc(NCC4CC4)nn23)c1 | 26% | 
COc1cc(CNc2ccc3ncc(-c4ccc(Oc5ccccc5)cc4)n3n2)cc(OC)c1OC | 24% | 
CCCNc1ccc2ncc(-c3ccsc3)n2n1 | 23% | 
